Reference: US7803930B2, “Antisense modulation of apolipoprotein B-expression” (Isis Pharmaceuticals, Inc., priority 2002, dated 2010)

How the values were obtained:
[1] = High fat fed C57BL/6 mice, 6 week timecourse: serum cholesterol, triglyceride, lipoprotein and glucose levels; format: in vivo, mouse; conditions: for Percent Inhibition HDL / Percent Inhibition LDL / Percent Inhibition VLDL: negative = increase; for Percent Inhibition of serum cholesterol levels: normalized to saline control; for Triglycerides: study end (control 115 mg/dL); for serum cholesterol: study end (control 240 mg/dL); for serum glucose levels: study termination (saline control 300 mg/dL)
Method: Male C57BL/6 mice (n=8) receiving a high fat diet (60% kcal fat) were evaluated over the course of 6 weeks for the effects of treatment with the antisense oligonucleotide, ISIS 147764. Control animals received saline treatment (50 mg/kg). A subset of animals received a daily oral dose (20 mg/kg) atorvastatin calcium (Lipitor®, Pfizer Inc.). All mice, except atorvastatin-treated animals, were dosed intraperitoneally every three days (twice a week), after fasting overnight, with 5, 25, 50 mg/kg ISIS 147764 (SEQ ID No: 109) or saline (50 mg/kg) for six weeks. Serum cholesterol and lipoproteins were analyzed at 0, 2 and 6 week interim timepoints. At study termination, animals were sacrificed 48 hours after the final injections and evaluated for levels of target mRNA levels in liver, cholesterol, lipoprotein, triglyceride, liver enzyme (AST and ALT) and serum glucose levels as well as body, liver, spleen and fat pad weights.
(§1) Male C57BL/6 mice (n=8) receiving a high fat diet (60% kcal fat) were evaluated over the course of 6 weeks for the effects of ISIS 147764 on serum cholesterol and triglyceride levels. Control animals received saline treatment (50 mg/kg). Mice were dosed intraperitoneally every three days (twice a week), after fasting overnight, with 5, 25, 50 mg/kg ISIS 147764 (SEQ ID No: 109) or saline (50 mg/kg) for six weeks.
Values in the table are expressed as percent inhibition and are normalized to the saline control.
In addition to serum cholesterol, at study termination, animals were sacrificed 48 hours after the final injections and evaluated for triglyceride levels.
as §1, with “lipoprotein (VLDL, LDL” for “serum cholesterol”, “HDL)” for “triglyceride”
Values in the table are expressed as percent inhibition and are normalized to the saline control. Negative values indicate an observed increase in lipoprotein levels.
as §1, with “glucose” for “cholesterol and triglyceride”
At study termination, animals were sacrificed 48 hours after the final injections and evaluated for serum glucose levels. […] Mice treated with atorvastatin at a daily oral dose of 20 mg/kg had serum glucose levels of 215 mg/dL.

[2] = test system: human apolipoprotein B mRNA; test: Transgenic mice dosing study (Example 52): human apolipoprotein B mRNA in liver; format: in vivo, human transgene in mouse; conditions: for % Inhibition, human apolipoprotein B mRNA: liver, 12 weeks
Method: A long-term study of inhibition of human apolipoprotein B by ISIS 301012 in C57BL/6NTac-TgN(APOB100) mice (Taconic, Germantown, N.Y.) was conducted for a 3 month period. Mice were dosed intraperitoneally twice a week with 10 or 25 mg/kg ISIS 301012 (SEQ ID No: 247) for 12 weeks. Saline-injected animals served as controls. Each treatment group comprised 4 animals.
The study was terminated forty eight hours after the final injections in the eighth week of treatment, when animals were sacrificed and evaluated for target mRNA levels in liver, apolipoprotein B protein levels in liver and serum cholesterol and liver enzyme levels. In addition, the expression of endogenous mouse apolipoprotein B levels in liver was measured to evaluate any effects of ISIS 301012 on mouse apolipoprotein B mRNA expression.
Human and mouse apolipoprotein B mRNA levels in livers of animals treated for 12 weeks were measured by real-time PCR as described herein. Each result represents the average of data from 4 animals.

[3] = test system: human apolipoprotein B protein; test: Transgenic mice dosing study (Example 52): ELISA of human apolipoprotein B protein in liver; format: in vivo, human transgene in mouse

Substance: GTCCCTGAAGATGTCAATGC (2'-MOE gapmer, further chemistry not given here) [ISIS 147764]
- Percent Inhibition HDL ([1]; 5 mg/kg i.p., 0 weeks): 0%
- Percent Inhibition LDL ([1]; 5 mg/kg i.p., 0 weeks): 0%
- Percent Inhibition VLDL ([1]; 5 mg/kg i.p., 0 weeks): 0%
- Percent Inhibition of serum cholesterol levels ([1]; 5 mg/kg i.p., 0 weeks): 0%
- Percent Inhibition HDL ([1]; 5 mg/kg i.p., 2 weeks): 5%
- Percent Inhibition LDL ([1]; 5 mg/kg i.p., 2 weeks): −30%
- Percent Inhibition VLDL ([1]; 5 mg/kg i.p., 2 weeks): 25%
- Percent Inhibition of serum cholesterol levels ([1]; 5 mg/kg i.p., 2 weeks): 5%
- Percent Inhibition HDL ([1]; 5 mg/kg i.p., 6 weeks): 10%
- Percent Inhibition LDL ([1]; 5 mg/kg i.p., 6 weeks): −10%
- Percent Inhibition VLDL ([1]; 5 mg/kg i.p., 6 weeks): 10%
- Percent Inhibition of serum cholesterol levels ([1]; 5 mg/kg i.p., 6 weeks): 10%
- Triglycerides ([1]; 5 mg/kg): 125 mg/dL
- serum cholesterol ([1]; 5 mg/kg): 225 mg/dL
- serum glucose levels ([1]; 5 mg/kg): 225 mg/dL
- Percent Inhibition HDL ([1]; 25 mg/kg i.p., 0 weeks): 0%
- Percent Inhibition LDL ([1]; 25 mg/kg i.p., 0 weeks): 0%
- Percent Inhibition VLDL ([1]; 25 mg/kg i.p., 0 weeks): 0%
- Percent Inhibition of serum cholesterol levels ([1]; 25 mg/kg i.p., 0 weeks): 0%
- Percent Inhibition HDL ([1]; 25 mg/kg i.p., 2 weeks): 10%
- Percent Inhibition LDL ([1]; 25 mg/kg i.p., 2 weeks): 10%
- Percent Inhibition VLDL ([1]; 25 mg/kg i.p., 2 weeks): 30%
- Percent Inhibition of serum cholesterol levels ([1]; 25 mg/kg i.p., 2 weeks): 12%
- Percent Inhibition HDL ([1]; 25 mg/kg i.p., 6 weeks): 45%
- Percent Inhibition LDL ([1]; 25 mg/kg i.p., 6 weeks): 55%
- Percent Inhibition VLDL ([1]; 25 mg/kg i.p., 6 weeks): −30%
- Percent Inhibition of serum cholesterol levels ([1]; 25 mg/kg i.p., 6 weeks): 45%
- Triglycerides ([1]; 25 mg/kg): 150 mg/dL
- serum cholesterol ([1]; 25 mg/kg): 125 mg/dL
- serum glucose levels ([1]; 25 mg/kg): 190 mg/dL
- lowering of serum lipoproteins compared to atorvastatin ([1]; 50 mg/kg): lowering all categories of serum lipoproteins investigated to a greater extent than atorvastatin
- Percent Inhibition HDL ([1]; 50 mg/kg i.p., 0 weeks): 0%
- Percent Inhibition LDL ([1]; 50 mg/kg i.p., 0 weeks): 0%
- Percent Inhibition VLDL ([1]; 50 mg/kg i.p., 0 weeks): 0%
- Percent Inhibition of serum cholesterol levels ([1]; 50 mg/kg i.p., 0 weeks): 0%
- Percent Inhibition HDL ([1]; 50 mg/kg i.p., 2 weeks): 10%
- Percent Inhibition LDL ([1]; 50 mg/kg i.p., 2 weeks): 40%
- Percent Inhibition VLDL ([1]; 50 mg/kg i.p., 2 weeks): 40%
- Percent Inhibition of serum cholesterol levels ([1]; 50 mg/kg i.p., 2 weeks): 20%
- Percent Inhibition HDL ([1]; 50 mg/kg i.p., 6 weeks): 50%
- Percent Inhibition LDL ([1]; 50 mg/kg i.p., 6 weeks): 90%
- Percent Inhibition VLDL ([1]; 50 mg/kg i.p., 6 weeks): 15%
- Percent Inhibition of serum cholesterol levels ([1]; 50 mg/kg i.p., 6 weeks): 55%
- Triglycerides ([1]; 50 mg/kg): 85 mg/dL
- serum cholesterol ([1]; 50 mg/kg): 110 mg/dL
- serum glucose levels ([1]; 50 mg/kg): 180 mg/dL

Substance: ISIS 301012: SEQ ID NO: 247, antisense oligonucleotide targeted to human apolipoprotein B (antisense GCCTCAGTCTGCTTCGCACC; chemistry not given here)
- reduction of human apolipoprotein B mRNA in liver ([2]; 12 weeks of treatment): ≤ 75%
- % Inhibition, human apolipoprotein B mRNA ([2]; 10 mg/kg i.p. twice a week): 65%
- % Inhibition, human apolipoprotein B mRNA ([2]; 25 mg/kg i.p. twice a week): 75%
- reduction in human apolipoprotein B protein in liver (ELISA) ([3]; 10 mg/kg): 80%
- reduction in human apolipoprotein B protein in liver (ELISA) ([3]; 20 mg/kg (so in the source)): 82%
